Test results taken from publication PMC6099400, “A New Benzophenone C-Glucoside and Other Constituents of Pseuduvaria fragrans and Their α-Glucosidase Inhibitory Activity” (Molecules : A Journal of Synthetic Chemistry and Natural …, 2018).
Where two headings read alike, the source gives them in different places.

What was measured:
[1] = biological target: T1, Yeast α-glucosidase enzyme (Saccharomyces cerevisiae, UniProt P53341); test: Kinetic study of α-glucosidase inhibition (Lineweaver-Burk and secondary plots); format: biochemical; details: for mode of enzyme inhibition: Lineweaver-Burk plots; for Slope: Lineweaver-Burk
Procedure: Lineweaver-Burk plots of the inverted values of velocity (1/V) versus the inverted values of substrate concentration (1/[S]) were prepared. […] To determine the Ki of each amide, we constructed a secondary plot by replotting the reciprocal of Km (1/Km) against inhibitor concentration.
Vacuum liquid chromatography (VLC) and column chromatography (CC) were performed on silica gel 60 (40–63 μm, Merck, Darmstadt, Germany), silica gel 60 (63–200 μm, Merck, Darmstadt, Germany) or Sephadex LH-20 (Pharmacia, Piscataway, NJ, USA) or Diaion HP20 (Mitsubishi Chemical, Tokyo, Japan). For preparative HPLC, a Shim-pack Prep-ODS (No.2025820) column (Shimadzu, Tokyo, Japan), with isocratic 50% methanol in water, SPD-10A UV-Vis detector (Shimadzu, Tokyo, Japan), and flow rate 1 mL/min, was used. NMR spectra were obtained with a Bruker Avance DPX-300 FT-NMR spectrometer (Brucker Corporation, Billerica, MA, USA). High-resolution electrospray ionization mass spectra (HR-ESI-MS) were recorded with a Bruker micro TOF mass spectrometer (Bruker Daltonics, Billerica, MA, USA). Optical rotations were obtained with a PerkinElmer 341 polarimeter (PerkinElmer, Boston, MA, USA). UV spectra were measured on an Agilent Technologies Cary 60 UV-Vis (Agilent, Santa Clara, CA, USA), and IR spectra (Agilent, Santa Clara, CA, USA) were recorded on a Perkin-Elmer FT-IR 1760x spectrophotometer (PerkinElmer, Boston, MA, USA). […] Absorbance in 96-well plates was measured using a microplate reader (Wallac1420 Multilevel counter, Victor3, PerkinElmer).
The kinetic assay of enzyme inhibition was done in a 96-well plate. The enzyme kinetics parameters (Km and Vmax) were obtained by analyzing the double reciprocal Lineweaver-Burk plot (1/V vs. 1/[S]). Each experiment was carried out by varying the concentration of pNPG (2.0, 1.0, 0.5, 0.25, 0.125 mM) in the absence and presence of different concentrations of the test sample. The reaction was monitored at 405 nm by a microplate reader every 5 min for a total time of 30 min. Each experiment was performed in triplicate. […] The inhibition constant (Ki) of each compound was then calculated from the intersection on the abscissa.

[2] = biological target: T1, Yeast α-glucosidase enzyme; details: earlier report; cited from earlier work

T1 sequence (P53341 whole entry): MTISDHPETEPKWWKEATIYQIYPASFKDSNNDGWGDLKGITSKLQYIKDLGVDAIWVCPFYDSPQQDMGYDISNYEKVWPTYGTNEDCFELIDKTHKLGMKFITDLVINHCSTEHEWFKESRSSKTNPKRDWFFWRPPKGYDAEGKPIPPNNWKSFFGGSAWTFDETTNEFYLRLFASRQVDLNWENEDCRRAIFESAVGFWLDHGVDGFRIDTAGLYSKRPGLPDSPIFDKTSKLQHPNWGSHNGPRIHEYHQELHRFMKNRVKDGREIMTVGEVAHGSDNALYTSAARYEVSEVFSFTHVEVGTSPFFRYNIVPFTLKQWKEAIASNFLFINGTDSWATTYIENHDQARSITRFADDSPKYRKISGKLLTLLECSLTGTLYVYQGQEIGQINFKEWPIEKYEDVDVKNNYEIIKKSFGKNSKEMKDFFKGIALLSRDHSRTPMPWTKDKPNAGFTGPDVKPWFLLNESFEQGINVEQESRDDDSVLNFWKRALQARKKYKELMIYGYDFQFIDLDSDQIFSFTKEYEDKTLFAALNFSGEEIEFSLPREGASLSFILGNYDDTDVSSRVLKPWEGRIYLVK

Slope ([1]; inhibitor dose 4.0 µM) | Slope ([1]; inhibitor dose 8.0 µM) | Vmax ([1]; inhibitor dose 4.0 µM) | Vmax ([1]; inhibitor dose 8.0 µM) | Structure (SMILES) | mode of enzyme inhibition [1] | Slope ([1]; inhibitor dose 0.5 µM) | Slope ([1]; inhibitor dose 1.0 µM) | Slope ([1]; inhibitor dose 2.0 µM) | Vmax ([1]; inhibitor dose 0.5 µM) | Vmax ([1]; inhibitor dose 1.0 µM) | Vmax ([1]; inhibitor dose 2.0 µM) | mode of enzyme inhibition [2]
 |  |  |  | O=C(/C=C/c1ccc(O)cc1)NCCc1ccc(O)cc1 [Compound 6, N-trans-coumaroyltyramine] | uncompetitive inhibitors | 34.55 | 34.67 | 35.56 | 0.0077 ΔA405/min | 0.0030 ΔA405/min | 0.0018 ΔA405/min | uncompetitive α-glucosidase inhibition
37.56 | 36.51 | 0.0044 ΔA405/min | 0.0027 ΔA405/min | COc1cc(/C=C/C(=O)NCCc2ccc(O)cc2)ccc1O [Compound 7, N-trans-feruloyltyramine] | uncompetitive inhibitors |  |  | 36.62 |  |  | 0.0072 ΔA405/min | 
 |  |  |  | C[C@H]1O[C@H](O[C@H]2[C@H](O)[C@@H](O)[C@@H](O[C@H]3[C@H](O)[C@@H](O)C(O)O[C@@H]3CO)O[C@@H]2CO)[C@H](O)[C@@H](O)[C@@H]1N[C@H]1C=C(CO)[C@@H](O)[C@H](O)[C@H]1O (stereo partly shown) [acarbose, reference compound] | competitive inhibition |  |  |  |  |  |  | 
